According to ChEMBL document CHEMBL1158509, “Novel selective thiazoleacetic acids as CRTH2 antagonists developed from in silico derived hits. Part 2” (Bioorg Med Chem Lett, 2010):
In brackets after ≈: the same amount, converted by molar mass.

Columns and labels:
[1] = biological target: T1, Polyunsaturated fatty acid lipoxygenase ALOX15 (Homo sapiens) (UniProt P16050); assay: Inhibition of 15-lipoxygenase at 10 uM
T1 sequence (whole entry): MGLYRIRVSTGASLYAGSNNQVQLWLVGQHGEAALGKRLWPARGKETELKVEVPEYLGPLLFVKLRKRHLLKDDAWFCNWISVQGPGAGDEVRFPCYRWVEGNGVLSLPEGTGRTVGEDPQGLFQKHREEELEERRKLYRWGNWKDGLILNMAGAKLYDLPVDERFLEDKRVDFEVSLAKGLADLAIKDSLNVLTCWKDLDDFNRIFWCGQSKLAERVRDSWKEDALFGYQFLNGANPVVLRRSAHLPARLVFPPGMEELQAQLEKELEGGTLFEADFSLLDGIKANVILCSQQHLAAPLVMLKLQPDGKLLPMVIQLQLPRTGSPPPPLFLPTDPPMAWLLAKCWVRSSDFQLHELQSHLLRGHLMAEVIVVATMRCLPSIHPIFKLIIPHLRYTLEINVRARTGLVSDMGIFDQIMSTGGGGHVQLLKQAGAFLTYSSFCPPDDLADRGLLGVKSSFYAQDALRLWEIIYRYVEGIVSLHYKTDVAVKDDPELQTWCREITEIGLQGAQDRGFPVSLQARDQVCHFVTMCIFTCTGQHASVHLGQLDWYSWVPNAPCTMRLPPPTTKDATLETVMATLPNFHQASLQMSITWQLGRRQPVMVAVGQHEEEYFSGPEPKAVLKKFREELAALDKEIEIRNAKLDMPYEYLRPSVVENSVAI

[2] = Aqueous solubility at pH 7.4; type: physicochemical
CYP3A4 = CYP3A4 (Homo sapiens, UniProt P08684); assay: Inhibition of CYP3A4 at 1 uM; type: ADME
CYP3A4, sequence (P08684 whole entry): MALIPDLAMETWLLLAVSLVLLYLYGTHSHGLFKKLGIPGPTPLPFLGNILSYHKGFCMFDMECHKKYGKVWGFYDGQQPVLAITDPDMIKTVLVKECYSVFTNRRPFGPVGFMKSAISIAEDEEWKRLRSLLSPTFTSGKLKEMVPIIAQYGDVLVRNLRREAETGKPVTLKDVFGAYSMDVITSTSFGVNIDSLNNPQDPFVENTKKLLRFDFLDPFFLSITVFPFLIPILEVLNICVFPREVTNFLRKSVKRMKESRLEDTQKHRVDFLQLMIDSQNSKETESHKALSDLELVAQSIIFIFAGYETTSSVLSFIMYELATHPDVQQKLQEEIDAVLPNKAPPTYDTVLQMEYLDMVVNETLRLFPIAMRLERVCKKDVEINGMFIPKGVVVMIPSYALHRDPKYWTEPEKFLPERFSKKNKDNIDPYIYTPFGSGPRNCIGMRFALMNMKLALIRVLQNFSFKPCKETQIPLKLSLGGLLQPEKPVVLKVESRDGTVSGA

[3] = biological target: T2, Prostaglandin G/H synthase 2 (Homo sapiens) (UniProt P35354); assay: Inhibition of COX2 at 10 uM
T2 sequence (whole entry): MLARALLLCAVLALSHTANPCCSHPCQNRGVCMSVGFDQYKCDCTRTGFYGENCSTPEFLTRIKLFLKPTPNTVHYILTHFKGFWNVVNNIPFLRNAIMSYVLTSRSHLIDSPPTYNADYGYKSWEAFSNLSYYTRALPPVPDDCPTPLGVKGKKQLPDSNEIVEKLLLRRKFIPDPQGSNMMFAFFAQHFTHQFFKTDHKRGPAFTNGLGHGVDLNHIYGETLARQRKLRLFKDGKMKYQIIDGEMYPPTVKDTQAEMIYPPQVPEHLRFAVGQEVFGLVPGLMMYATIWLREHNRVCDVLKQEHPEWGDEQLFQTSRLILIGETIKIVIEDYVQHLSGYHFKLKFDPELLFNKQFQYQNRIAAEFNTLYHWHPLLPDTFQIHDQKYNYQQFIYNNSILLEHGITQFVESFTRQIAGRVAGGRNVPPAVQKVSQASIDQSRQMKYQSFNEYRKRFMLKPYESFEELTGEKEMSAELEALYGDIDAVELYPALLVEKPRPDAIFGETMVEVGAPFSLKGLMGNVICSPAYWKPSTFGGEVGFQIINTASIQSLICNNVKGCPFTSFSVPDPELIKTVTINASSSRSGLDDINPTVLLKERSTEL

[4] = biological target: T3, Polyunsaturated fatty acid lipoxygenase ALOX12 (Homo sapiens) (UniProt P18054); assay: Inhibition of 12-lipoxygenase at 10 uM
T3 sequence (whole entry): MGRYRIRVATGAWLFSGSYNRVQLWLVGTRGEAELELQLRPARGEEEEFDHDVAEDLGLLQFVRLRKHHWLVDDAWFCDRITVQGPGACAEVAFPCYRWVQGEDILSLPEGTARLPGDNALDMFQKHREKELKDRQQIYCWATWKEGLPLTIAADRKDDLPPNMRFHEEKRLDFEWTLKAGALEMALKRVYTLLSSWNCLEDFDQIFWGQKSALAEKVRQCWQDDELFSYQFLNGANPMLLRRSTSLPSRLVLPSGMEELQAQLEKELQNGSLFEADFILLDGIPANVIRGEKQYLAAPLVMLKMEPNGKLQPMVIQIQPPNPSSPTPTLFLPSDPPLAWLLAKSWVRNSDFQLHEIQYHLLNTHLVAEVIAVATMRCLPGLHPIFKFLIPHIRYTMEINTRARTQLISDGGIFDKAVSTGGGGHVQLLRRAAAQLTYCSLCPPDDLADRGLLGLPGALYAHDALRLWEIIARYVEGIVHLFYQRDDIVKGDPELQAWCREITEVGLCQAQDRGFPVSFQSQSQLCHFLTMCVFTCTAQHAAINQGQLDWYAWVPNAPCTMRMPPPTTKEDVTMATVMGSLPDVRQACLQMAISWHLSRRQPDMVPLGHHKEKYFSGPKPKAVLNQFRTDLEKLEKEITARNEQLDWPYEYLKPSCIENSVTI

[5] = biological target: T4, Prostaglandin D2 receptor 2 (Homo sapiens) (UniProt Q9Y5Y4); assay: Antagonist activity at human CRTH2 receptor expressed in […] cells assessed as inhibition of beta arrestin translocation by bioluminescence resonance energy transfer assay relative to control; type: functional, cell-based
T4 sequence (whole entry): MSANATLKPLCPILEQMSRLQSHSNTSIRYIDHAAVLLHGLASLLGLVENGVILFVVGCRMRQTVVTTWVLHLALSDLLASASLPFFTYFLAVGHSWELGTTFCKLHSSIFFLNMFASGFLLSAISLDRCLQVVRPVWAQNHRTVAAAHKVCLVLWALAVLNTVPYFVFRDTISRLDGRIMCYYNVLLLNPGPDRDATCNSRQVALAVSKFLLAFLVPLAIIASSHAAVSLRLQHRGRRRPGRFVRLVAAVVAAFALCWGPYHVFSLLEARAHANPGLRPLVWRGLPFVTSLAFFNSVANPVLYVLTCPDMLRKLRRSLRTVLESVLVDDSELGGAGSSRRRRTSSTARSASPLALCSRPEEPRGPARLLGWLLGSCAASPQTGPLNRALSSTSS

[6] = biological target: Prostaglandin G/H synthase 1 (Homo sapiens) (UniProt P23219); assay: Inhibition of COX1 at 10 uM
Prostaglandin G/H synthase 1 (Homo sapiens), sequence (P23219 whole entry): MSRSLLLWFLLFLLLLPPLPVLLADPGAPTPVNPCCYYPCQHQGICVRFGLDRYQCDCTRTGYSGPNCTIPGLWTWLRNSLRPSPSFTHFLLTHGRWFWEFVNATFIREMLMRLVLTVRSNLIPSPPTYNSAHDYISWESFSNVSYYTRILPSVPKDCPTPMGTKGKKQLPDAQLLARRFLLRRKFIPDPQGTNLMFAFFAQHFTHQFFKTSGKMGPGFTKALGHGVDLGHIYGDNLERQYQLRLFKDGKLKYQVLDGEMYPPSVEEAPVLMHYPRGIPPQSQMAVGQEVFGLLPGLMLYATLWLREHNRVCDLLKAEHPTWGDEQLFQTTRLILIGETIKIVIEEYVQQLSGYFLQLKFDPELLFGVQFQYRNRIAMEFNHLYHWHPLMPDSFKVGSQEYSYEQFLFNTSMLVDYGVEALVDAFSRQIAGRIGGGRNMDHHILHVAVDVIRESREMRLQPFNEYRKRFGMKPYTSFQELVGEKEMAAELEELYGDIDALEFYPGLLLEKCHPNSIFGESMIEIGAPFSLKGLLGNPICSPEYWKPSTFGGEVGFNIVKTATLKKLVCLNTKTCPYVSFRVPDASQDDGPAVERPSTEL

[7] = biological target: T5, Prostaglandin D2 receptor (Homo sapiens, UniProt Q13258); assay: Inhibition of DP1 receptor
T5 sequence (Q13258 whole entry): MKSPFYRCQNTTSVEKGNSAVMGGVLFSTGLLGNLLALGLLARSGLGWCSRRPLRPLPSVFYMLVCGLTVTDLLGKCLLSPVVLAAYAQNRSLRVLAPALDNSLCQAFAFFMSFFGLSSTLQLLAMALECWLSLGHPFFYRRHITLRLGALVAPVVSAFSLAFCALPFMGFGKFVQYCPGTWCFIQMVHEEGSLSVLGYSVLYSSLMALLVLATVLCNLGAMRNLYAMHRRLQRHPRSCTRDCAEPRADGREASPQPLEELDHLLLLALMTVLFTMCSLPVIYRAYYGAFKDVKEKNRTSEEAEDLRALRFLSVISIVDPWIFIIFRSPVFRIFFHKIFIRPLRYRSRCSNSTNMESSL

[8] = Permeability apical to basolateral side in human Caco-2 cells; type: ADME, cell-based; conditions: read-out: permeability
[9] = Clearance in rat; type: ADME, organism-based; conditions: in vivo
[10] = biological target: T6, Prostaglandin D2 receptor 2 (Homo sapiens, UniProt Q9Y5Y4); assay: Antagonist activity at human CRTH2 receptor expressed in […] cells assessed as inhibition of beta arrestin translocation by bioluminescence resonance energy transfer assay; type: functional, cell-based
T6 sequence (Q9Y5Y4 whole entry): T4 sequence (whole entry)

[11] = Half life in rat; type: ADME, organism-based; conditions: in vivo
[12] = Aqueous solubility at pH 1; type: physicochemical
[13] = Metabolic stability in rat liver S9 fraction assessed as compound remaining; type: ADME, subcellular
[14] = biological target: Phospholipase A2 (Homo sapiens) (UniProt P04054); assay: Inhibition of PLA2 at 10 uM
Phospholipase A2 (Homo sapiens), sequence (P04054 23-148 limits assumed): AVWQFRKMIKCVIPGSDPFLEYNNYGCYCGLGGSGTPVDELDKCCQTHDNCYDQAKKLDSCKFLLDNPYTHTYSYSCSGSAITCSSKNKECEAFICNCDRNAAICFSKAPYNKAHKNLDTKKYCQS

[15] = Bioavailability in rat; type: ADME, organism-based; conditions: in vivo
[16] = biological target: T6, Prostaglandin D2 receptor 2; assay: Displacement of[3H]PGD2 from human CRTH2 receptor expressed in […] cells; type: cell-based
[17] = Metabolic stability in human liver S9 fraction assessed as compound remaining; type: ADME, subcellular
CYP2D6 = CYP2D6 (Homo sapiens, UniProt P10635); assay: Inhibition of CYP2D6 at 1 uM; type: ADME
CYP2D6, sequence (P10635 whole entry): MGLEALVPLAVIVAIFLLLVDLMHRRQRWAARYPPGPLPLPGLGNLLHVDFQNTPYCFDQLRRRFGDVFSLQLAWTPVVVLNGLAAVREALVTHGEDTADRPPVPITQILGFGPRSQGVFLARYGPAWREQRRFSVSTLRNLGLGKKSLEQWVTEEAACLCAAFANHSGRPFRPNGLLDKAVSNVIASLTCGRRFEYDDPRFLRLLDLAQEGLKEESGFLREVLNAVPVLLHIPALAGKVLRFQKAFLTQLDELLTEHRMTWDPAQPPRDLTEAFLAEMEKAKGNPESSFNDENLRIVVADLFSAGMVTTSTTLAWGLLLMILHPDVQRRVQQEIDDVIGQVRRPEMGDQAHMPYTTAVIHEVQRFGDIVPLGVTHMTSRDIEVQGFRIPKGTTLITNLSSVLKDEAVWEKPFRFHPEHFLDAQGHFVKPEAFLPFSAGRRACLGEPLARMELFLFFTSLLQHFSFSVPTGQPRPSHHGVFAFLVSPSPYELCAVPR

[18] = biological target: T6, Prostaglandin D2 receptor 2; assay: Displacement of[3H]PGD2 from human CRTH2 receptor expressed in african green monkey COS7 cells; type: cell-based, COS-7
[19] = Octanol-water distribution coefficient, log D at pH 7.4; type: physicochemical

| Structure (SMILES) | Efficacy [5] | IC50 [10] | IC50 [16] | also measured |
| --- | --- | --- | --- | --- |
| COc1ccc(C(c2ccccc2)c2nc(-c3ccc(F)cc3)c(CC(=O)O)s2)cc1 (stereo unspecified) | 80% | 31 nM | 3.6 nM | inhibition at 1 µM (CYP3A4): 4.4%; clearance [9]: 70 mL/min/kg; half-life [11]: 8.5 h; solubility [12]: 40 µM (≈ 17.3 µg/mL); Stability [13]: 0%; logD [19]: 3; bioavailability [15]: 81%; Stability [17]: 3.3%; inhibition at 1 µM (CYP2D6): 5.8% |
| O=C(O)Cc1sc(C(c2ccc(F)cc2)c2ccc(F)cc2)nc1-c1ccnc(N2CCCC2)c1 | 80% | > 100000 nM | 230 nM | – |
| Nc1cc(-c2nc(C(c3ccc(F)cc3)c3ccc(F)cc3)sc2CC(=O)O)cc(F)n1 | 30% | 1400 nM | 220 nM | – |
| O=C(O)Cc1sc(C(c2ccccc2)c2ccc(F)cc2)nc1-c1ccc(Cl)cc1 (stereo unspecified) | 80% | 36 nM | 17 nM | – |
| O=C(O)Cc1sc(C(c2ccccc2)c2cccc(Cl)n2)nc1-c1ccc(Cl)cc1 (stereo unspecified) | 80% | > 100000 nM | 3200 nM | – |
| O=C(O)Cc1sc(C(c2ccccc2)c2ccccc2)nc1-c1ccc(F)cc1 | 80% | 77 nM | 8.7 nM | – |
| O=C(O)Cc1sc(C(c2ccccc2)c2ccccc2)nc1-c1ccc(F)c(F)c1 | 80% | 43 nM | 4.1 nM | – |
| O=C(O)Cc1sc(C(c2ccc(F)cc2)c2ccc(F)cc2)nc1-c1cncc(F)c1 | 80% | 300 nM | 71 nM | – |
| Nc1cc(-c2nc(C(c3ccc(F)cc3)c3ccc(F)cc3)sc2CC(=O)O)ccn1 | 80% | 64 nM | 4.8 nM | – |
| CS(=O)(=O)Nc1cccc(-c2nc(C(c3ccc(F)cc3)c3ccc(F)cc3)sc2CC(=O)O)c1 | 80% | 370 nM | 40 nM | – |

More lines, main results first:

| Efficacy [5] | IC50 [10] | IC50 [16] | Structure (SMILES) | also measured |
| --- | --- | --- | --- | --- |
| 50% | 60 nM | 14 nM | O=C(O)Cc1sc(C(c2ccccc2)c2ccccc2)nc1-c1ccc(Cl)cc1 | inhibition [1]: 20%; solubility [2]: 154 µM (≈ 64.7 µg/mL); inhibition at 1 µM (CYP3A4): 69%; inhibition [3]: 20%; inhibition [4]: 20%; inhibition [6]: 20%; IC50 [7]: 100000 nM; Papp A→B [8]: 2.6 ×10⁻⁶ cm/s; clearance [9]: 27 mL/min/kg; half-life [11]: 24 h; solubility [12]: 197 µM (≈ 82.7 µg/mL); Stability [13]: 2.1%; inhibition [14]: 20%; bioavailability [15]: 62%; Stability [17]: 98.5%; inhibition at 1 µM (CYP2D6): 97.8% |
| 50% | 3800 nM | – | O=C(O)Cc1sc(-c2ccco2)nc1-c1ccc(Cl)cc1 | IC50 [18]: 550 nM |
| 50% | 41000 nM | – | Cc1nc(-c2ccc(Cl)cc2)c(CC(=O)O)s1 | IC50 [18]: 5500 nM |
| 30% | 2300 nM | 440 nM | O=C(O)Cc1sc(NCc2ccccc2)nc1-c1ccc(Cl)cc1 | – |
| 50% | 550 nM | 52 nM | CC(=O)N1CCC(c2ccccc2)(c2nc(-c3ccc(Cl)cc3)c(CC(=O)O)s2)CC1 | – |
| 80% | 76 nM | 8.4 nM | COc1ccc(C(c2ccccc2)c2nc(-c3ccc(Cl)cc3)c(CC(=O)O)s2)cc1 (stereo unspecified) | – |
| 50% | 870 nM | 520 nM | O=C(O)Cc1sc(NC(=O)c2ccccc2)nc1-c1ccc(Cl)cc1 | – |
